Measurements: patent US20080176914A1, “CRYSTAL FORM OF 2-(3-FLUORO-4-HYDROXYPHENYL)-7-VINYL-1,3-BENZOXAZOL-5-OL” (WYETH, priority 2006, published 2008)

Assay: Conversion of the crystal form on suspending and stirring in solvent at room temperature
Assay type: physicochemical
Excerpt: The anhydrate crystal form (Form B) can be converted to other crystal forms under suitable conditions.

C=Cc1cc(O)cc2nc(-c3ccc(O)c(F)c3)oc12 [Form B, 2-(3-fluoro-4-hydroxyphenyl)-7-vinyl-1,3-benzoxazol-5-ol]
crystal form obtained after suspending and stirring in ethanol (suspended and stirred in ethanol at room temperature for three days): another anhydrate crystal form is obtained
crystal form obtained after suspending and stirring in methanol (suspended and stirred in methanol at room temperature for one day): another anhydrate crystal form is obtained
crystal form obtained after suspending and stirring in water (suspended and stirred in water at room temperature for three days): a hydrate crystal form is obtained
